pIC50: −log10 of the molar value. Counter-ions that a name gives are not always drawn.
Tests used:
[1] = Chemical stability in simulated intestinal fluid (SIF); format: physicochemical; settings: SIF without enzymes, pH 6.5; 10 μm; 2 hours at 37° C.; substance amount remaining
In short: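 Compound at 10 μm (diluted from 10 mM DMSO stock) incubated 2 h at 37° C in enzyme-free SGF, pH=1,4, or enzyme-free SIF, pH=6.5. HPLC peak areas before and after incubation give % compound remaining.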

[2] = Chemical stability in human blood plasma; format: in vitro ADME; settings: pooled human blood plasma; 10 μm; 4 hours at 37° C.; substance amount remaining
In short: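 Percent of parent remaining was derived by comparing HPLC peak areas at time zero and after 4 h at 37 °C. Test compound was at 10 μM in human plasma pooled from ten donors, and proteins were precipitated with acetonitrile before analysis.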

[3] = Enzyme stability in human liver S9 fractions; format: in vitro ADME; settings: 0.5 mg/mL pooled human liver S9 fractions; 10 μM compound; 37° C.; pH 7.4; read-out: Stability in liver S9 fractions, Clint
In short: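 Compound at 10 μM was incubated at 37 °C with 0.5 mg/mL pooled human liver S9, 2 mM β-NAD and 4 mM MgCl2 in 0.1 M sodium phosphate, pH 7.4, then quenched with acetonitrile and analysed chromatographically. T½ and CLint were derived from the slope of log peak area versus time.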

[4] = target: T1, DM EGFR (DoubleMutantEGFR, L828R/T790M) (Homo sapiens, UniProt P00533, L858R/T790M); assay: Inhibition of DM EGFR kinase activity (ADP-Glo); format: biochemical; settings: for pIC50: inhibition of kinase activity, EGFR DM (L828R/T790M); for SI, IC50(WT)/IC50(DM): selectivity index, kinase EGFR WT vs EGFR DM
T1 construct: purchased SignalChem
In short: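 Luminescent ADP-Glo readout was used for both wild-type and L858R/T790M EGFR, each run 180 minutes at 37° C. Reactions used a solution of 50 μM ATP with 0.5 mg/mL peptide substrate. Four-parameter logistic curves gave IC50.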

[5] = General cytotoxicity on HepG2 cells; format: cell-based; settings: human; general cytotoxicity, HepG2 cells, 72 hours, average of several tests
In short: (§1)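 HepG2 cells seeded at 2*10^4 cells per well and compounds added in DMEM with 2% FBS for 72 h at 37 °C. Viability read with Alamar Blue and CC50 derived as for IC50. Therapeutic index taken as HepG2 CC50 over H1975 IC50.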

[6] = test system: HepG2 cells; assay: General cytotoxicity on HepG2 cells; format: cell-based; settings: therapeutic index, CC50 HepG2 / IC50 H1975
In short: as §1

| Stability in SIF, % [1] | Stability in blood plasma, % [2] | Intrinsic clearance in human liver S9 fractions at 10 µM [3] | pIC50 [4] | SI, IC50(WT)/IC50(DM) [4] | SMILES | CC50 at 72 h [5] | TI, CC50/IC50 [6] |
| --- | --- | --- | --- | --- | --- | --- | --- |
| 100.0% | 83.5% | 17.9 µL/min/mg | 7.48 | 4.70 | C=CC(=O)Nc1cc(Nc2nccc(C(=O)c3ccc(OCc4ccccc4)cc3)n2)c(OC)cc1N(C)CCN(C)C [EGFR_3365_16, N-(5-((4-(4-(benzyloxy)benzoyl)pyrimidin-2-yl)amino)-2-((2-(dimethylamino)ethyl)(methyl)amino)-4-methoxyphenyl)acrylamide] | 5790 nM | 108 |
| 100.0% | 100.0% | 14.4 µL/min/mg | 8.59 | 9.12 | C=CC(=O)Nc1cc(Nc2nccc(C(=O)c3ccc(OC)cc3OC)n2)c(OC)cc1N(C)CCN(C)C [EGFR_3365_69, N-(5-((4-(2,4-dimethoxybenzoyl)pyrimidin-2-yl)amino)-2-((2-(dimethylamino)ethyl)(methyl)amino)-4-methoxyphenyl)acrylamide] | 51900 nM | 6549 |
| 100.0% | 100.0% | 15.6 µL/min/mg | 9.03 | 24.32 | C=CC(=O)Nc1cc(Nc2nccc(C(=O)c3ccc(N4CCCC4)cc3)n2)c(OC)cc1N(C)CCN(C)C [EGFR_3365_63, N-(2-((2-(dimethylamino)ethyl)(methyl)amino)-4-methoxy-5-((4-(4-(pyrrolidin-1-yl)benzoyl)pyrimidin-2-yl)amino)phenyl)acrylamide] | 13000 nM | 2239 |
| 100.0% | 99.7% | 17.7 µL/min/mg | 8.63 | 16.81 | C=CC(=O)Nc1cc(Nc2nccc(C(=O)c3ccc(N4CCC4)cc3)n2)c(OC)cc1N(C)CCN(C)C [EGFR_3365_58, N-(5-((4-(4-(azetidin-1-yl)benzoyl)pyrimidin-2-yl)amino)-2-((2-(dimethylamino)ethyl)(methyl)amino)-4-methoxyphenyl)acrylamide] | 44400 nM | 4241 |
| 98.5% | 89.0% | 1.1 µL/min/mg | 8.48 | 9.74 | C=CC(=O)Nc1cc(Nc2cc(C(=O)c3ccc(OCCC)cc3)ccn2)c(OC)cc1N(C)CCN(C)C [EGFR_3365_50, N-(2-((2-(dimethylamino)ethyl)(methyl)amino)-4-methoxy-5-((4-(4-propoxybenzoyl)pyridin-2-yl)amino)phenyl)acrylamide] | 12400 nM | 262 |
| 97.2% | 84.8% | 5 µL/min/mg | 7.60 | 3.02 | C=CC(=O)Nc1cc(Nc2cc(C(=O)c3ccc(N4CCN(C)CC4)cc3)ccn2)c(OC)cc1N(C)CCN(C)C [EGFR_3365_55, N-(2-((2-(dimethylamino)ethyl)(methyl)amino)-4-methoxy-5-((4-(4-(4-methylpiperazin-1-yl)benzoyl)pyridin-2-yl)amino)phenyl)acrylamide] | 13300 nM | 63 |
| 96.4% | 83.2% | 9.1 µL/min/mg | 8.20 | 19.14 | C=CC(=O)Nc1cc(Nc2cc(C(=O)c3ccc(N4CCCC4)cc3)ccn2)c(OC)cc1N(C)CCN(C)C [EGFR_3365_56, N-(2-((2-(dimethylamino)ethyl)(methyl)amino)-4-methoxy-5-((4-(4-(pyrrolidin-1-yl)benzoyl)pyridin-2-yl)amino)phenyl)acrylamide] | 9510 nM | 325 |
| 100.0% | 90.3% | 13.6 µL/min/mg | 7.66 | 26.69 | C=CC(=O)Nc1cc(Nc2nccc(C(=O)c3ccccc3C(F)(F)F)n2)c(OC)cc1N(C)CCN(C)C [EGFR_3365, N-(2-((2-(dimethylamino)ethyl) (methyl)amino)-4-methoxy-5-((4-(2-(trifluoromethyl)benzoyl)pyrimidin-2-yl)amino)phenyl)acrylamide] | 25400 nM | 423 |
| 100.0% | 90.5% | 11.1 µL/min/mg | 8.63 | 13.89 | C=CC(=O)Nc1cc(Nc2nccc(C(=O)c3ccc(N(C)C)cc3)n2)c(OC)cc1N(C)CCN(C)C [EGFR_3365_73, N-(5-((4-(4-(dimethylamino)benzoyl)pyrimidin-2-yl)amino)-2-((2-(dimethylamino)ethyl) (methyl)amino)-4-methoxyphenyl)acrylamide] | 35600 nM | 3465 |
| 98.2% | 78.4% | 14.5 µL/min/mg | 8.04 | 10.40 | C=CC(=O)Nc1cc(Nc2nccc(C(=O)c3ccc(OCC)cc3OCC)n2)c(OC)cc1N(C)CCN(C)C [EGFR_3365_68, N-(5-((4-(2,4-diethoxybenzoyl)pyrimidin-2-yl)amino)-2-((2-(dimethylamino)ethyl) (methyl)amino)-4-methoxyphenyl)acrylamide] | 28600 nM | 825 |
| 91.5% | 94.6% | 20.2 µL/min/mg | 8.43 | 15.09 | C=CC(=O)Nc1cc(Nc2nccc(C(=O)c3ccc(N(CC)CC)cc3)n2)c(OC)cc1N(C)CCN(C)C [EGFR_3365_72, N-(5-((4-(4-(diethylamino)benzoyl)pyrimidin-2-yl)amino)-2-((2-(dimethylamino)ethyl)(methyl)amino)-4-methoxyphenyl)acrylamide] | 16200 nM | 1408 |
| 98.8% | 91.8% | 10.1 µL/min/mg | 8.14 | 25.06 | C=CC(=O)Nc1cc(Nc2cc(C(=O)c3ccc(N4CC(OC)C4)cc3)ccn2)c(OC)cc1N(C)CCN(C)C (racemic) [EGFR_3365_53, N-(2-((2-(dimethylamino)ethyl)(methyl)amino)-4-methoxy-5-((4-(4-(3-methoxyazetidin-1-yl)benzoyl)pyridin-2-yl)amino)phenyl)acrylamide] | 20600 nM | 457 |
| 98.8% | 97.0% | 10.9 µL/min/mg | 7.67 | 7.95 | C=CC(=O)Nc1cc(Nc2nccc(C(=O)c3ccc(Oc4ccccc4)cc3)n2)c(OC)cc1N(C)CCN(C)C [EGFR_3365_17, N-(2-((2-(dimethylamino)ethyl)(methyl)amino)-4-methoxy-5-((4-(4-phenoxybenzoyl)pyrimidin-2-yl)amino)phenyl)acrylamide] | 6320 nM | 16 |

| SMILES | Stability in SIF, % [1] | Stability in blood plasma, % [2] | Intrinsic clearance in human liver S9 fractions at 10 µM [3] | pIC50 [4] | SI, IC50(WT)/IC50(DM) [4] | CC50 at 72 h [5] | TI, CC50/IC50 [6] |
| --- | --- | --- | --- | --- | --- | --- | --- |
| C=CC(=O)Nc1cc(Nc2nccc(C(=O)c3ccc(N4CCN(C)CC4)cc3)n2)c(OC)cc1N(C)CCN(C)C [EGFR_3365_62, N-(2-((2-(dimethylamino)ethyl)(methyl)amino)-4-methoxy-5-((4-(4-(4-methylpiperazin-1-yl)benzoyl)pyrimidin-2-yl)amino)phenyl)acrylamide formate] | 100.0% | 98.4% | 3.7 µL/min/mg | 8.18 | 19.37 | 31100 nM | 512 |
| C=CC(=O)Nc1cc(Nc2nccc(C(=O)c3ccc(OCCCC)cc3)n2)c(OC)cc1N(C)CCN(C)C [EGFR_3365_66, N-(5-((4-(4-butoxybenzoyl)pyrimidin-2-yl)amino)-2-((2-(dimethylamino)ethyl)(methyl)amino)-4-methoxyphenyl)acrylamide] | 96.5% | 97.0% | 1.3 µL/min/mg | 8.73 | 25.13 | 9640 nM | 278 |
